Consider 13 molecules from ChEMBL document CHEMBL1144596, “Synthesis of O-prenylated and O-geranylated derivatives of 5-benzylidene2,4-thiazolidinediones and evaluation of their free radical scavenging activity as well as effect on some phase II antioxidant/detoxifying enzymes” (Bioorg Med Chem Lett, 2007).

The nature of test [1]: Inhibition of DPPH radical scavenging activity. The class given is functional. A general note: The DPPH test is a chemical assay of radical scavenging.
The species named for test [2] is Mus musculus. As to the kind of experiment: Stimulation of GST level in Swiss Albino mouse liver. In kind it is functional.
In test [3] the test system is Mus musculus. The test is described as follows: Hepatoprotecting activity in Swiss Albino mouse liver assessed as […] level at 3 mg/kg, po for 20 days. In kind it is functional.
The subject of test [4] is Mus musculus. As to the kind of experiment: Hepatoprotecting activity in Swiss Albino mouse liver assessed as ALT level at 3 mg/kg, po for 20 days. In kind it is functional.
Test [5] is filed under the species Mus musculus. The test is described as follows: Stimulation of CAT level per protein in Swiss Albino mouse liver. The class given is functional.
The species named for test [6] is Mus musculus. As to the kind of experiment: Stimulation of SOD level per protein in Swiss Albino mouse liver. The class given is functional.
Test [7] concerns Mus musculus. As to the kind of experiment: Hepatoprotecting activity in Swiss Albino mouse liver assessed as urea level at 3 mg/kg, po for 20 days.
For test [8], the species on record is Mus musculus. As to the kind of experiment: Stimulation of GSH level per protein in Swiss Albino mouse liver. The class given is functional.
The species named for test [9] is Mus musculus. The test is described as follows: Effect on lipid-peroxidation level per protein in Swiss Albino mouse liver. In kind it is functional, organism-based.

As usually defined, the IC50 is the concentration that gives 50% inhibition.

Turning to `CC(C)=CCOc1ccccc1/C=C1/SC(=O)NC1=O`, in [1], the IC50 worked out at 43.3 µM.
The same measure, in the same setting: for `CC(C)=CCC/C(C)=C/COc1ccccc1/C=C1/SC(=O)NC1=O` the value was 12 µM.
In the case of `COc1cc(/C=C2/SC(=O)NC2=O)cc(OC)c1OCC=C(C)C`, the Activity was found to be 140.54 nmol/mg/min in test [2]; 37.99 IU/L in test [3]; 7.3 IU/L in test [4]; 23.97 U/mg in test [5]; 67.45 U/mg in test [6]; 238.22 nmol/mg in test [8]. Besides, in test [9], the Activity was 0.158 nmol/mg. In test [1], this molecule yielded an IC50 of 4.08 µM. In addition, the Urea level in test [7] amounted to 16.53 mg/dL.
In turn, `Cc1c(C)c2c(c(C)c1O)CC[C@@](C)(CCC[C@H](C)CCC[C@H](C)CCCC(C)C)O2` [ALPHA-TOCOPHEROL] returned a concentration for half-maximal inhibition (IC50) in test [1] of 2.3 µM.
On to `CC(C)=CCC/C(C)=C\COc1ccc(/C=C2/SC(=O)NC2=O)cc1`, for which the Activity stood at 160.33 nmol/mg/min in test [2]; 32.88 IU/L in [3]; 6.32 IU/L in test [4]; 22.32 U/mg in test [5]; 70.15 U/mg in test [6]; 245.32 nmol/mg in test [8]. The molecule also had an Activity in [9] of 0.148 nmol/mg. The molecule further came in with an IC50 in test [1] of 9.8 µM. In addition, in test [7], the Urea level turned out to be 14.69 mg/dL.
The molecule `O=C1NC(=O)/C(=C\c2ccc(O)cc2)S1` came in with a concentration for half-maximal inhibition (IC50) in test [1] of 12 µM.
The same measure, in the same setting: under `CC(C)=CCOc1ccc(/C=C2/SC(=O)NC2=O)cc1` stands more than 50 µM.
In the case of `COc1cc(/C=C2/SC(=O)NC2=O)ccc1OCC=C(C)C`, the IC50 in test [1] is 17.9 µM.
The same measure, in the same setting: for `COc1cc(/C=C2/SC(=O)NC2=O)cc(OC)c1OC/C=C(/C)CCC=C(C)C` the value was 32.1 µM; for `COc1cc(/C=C2/SC(=O)NC2=O)cc(OC)c1O`, 2.85 µM.
`COc1cc(/C=C2/SC(=O)NC2=O)ccc1O`: the Activity turned out to be 220.8 nmol/mg/min in test [2]; 38.1 IU/L in [3]; 4.8 IU/L in test [4]; 16.85 U/mg in [5]; 65.45 U/mg in test [6]; 184.09 nmol/mg in [8]. Moreover, the Activity in test [9] is 0.143 nmol/mg. In [1], this molecule had an IC50 of 2.49 µM. For the same molecule, in [7], the Urea level is 13.83 mg/dL.
Molecule `O=C1NC(=O)/C(=C\c2ccccc2O)S1` came in with a half-inhibitory concentration (IC50) in test [1] of 23.5 µM.
As for `COc1cc(/C=C2/SC(=O)NC2=O)ccc1OC/C=C(/C)CCC=C(C)C`, half-maximal inhibition in test [1] (IC50) was put at 17.6 µM.
